Data as given in patent US8901118B2, “Compounds and methods for kinase modulation, and indications therefor” (Plexxikon Inc., priority 2010, dated 2014).

Assays:
SKNSH cells = experiment: SKNSH (human neuroblastoma) cell proliferation assay (ATPlite); type: cell-based; details: SK-N-SH, read-out: Inhibition of Cell Proliferation IC50, SKNSH
Summary of the method: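 Fms/Trk inhibitor efficacy was tested by proliferation of SKNSH neuroblastoma cells. After 3 days of compound exposure at 37° C. in 5% CO2, 20 μL per well of ATPlite 1 step reagent was added, plates sat 10 minutes at room temperature, and luminescence, proportional to cell number, was read on a Safire reader to derive IC50.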

TrkA kinase = TrkA kinase (Homo sapiens, UniProt P04629); experiment: TrkA kinase biochemical activity assay (AlphaScreen); details: 100 μM ATP; read-out: Biochemical Inhibition IC50 TrkA
Sequence of TrkA kinase (P04629 33-796): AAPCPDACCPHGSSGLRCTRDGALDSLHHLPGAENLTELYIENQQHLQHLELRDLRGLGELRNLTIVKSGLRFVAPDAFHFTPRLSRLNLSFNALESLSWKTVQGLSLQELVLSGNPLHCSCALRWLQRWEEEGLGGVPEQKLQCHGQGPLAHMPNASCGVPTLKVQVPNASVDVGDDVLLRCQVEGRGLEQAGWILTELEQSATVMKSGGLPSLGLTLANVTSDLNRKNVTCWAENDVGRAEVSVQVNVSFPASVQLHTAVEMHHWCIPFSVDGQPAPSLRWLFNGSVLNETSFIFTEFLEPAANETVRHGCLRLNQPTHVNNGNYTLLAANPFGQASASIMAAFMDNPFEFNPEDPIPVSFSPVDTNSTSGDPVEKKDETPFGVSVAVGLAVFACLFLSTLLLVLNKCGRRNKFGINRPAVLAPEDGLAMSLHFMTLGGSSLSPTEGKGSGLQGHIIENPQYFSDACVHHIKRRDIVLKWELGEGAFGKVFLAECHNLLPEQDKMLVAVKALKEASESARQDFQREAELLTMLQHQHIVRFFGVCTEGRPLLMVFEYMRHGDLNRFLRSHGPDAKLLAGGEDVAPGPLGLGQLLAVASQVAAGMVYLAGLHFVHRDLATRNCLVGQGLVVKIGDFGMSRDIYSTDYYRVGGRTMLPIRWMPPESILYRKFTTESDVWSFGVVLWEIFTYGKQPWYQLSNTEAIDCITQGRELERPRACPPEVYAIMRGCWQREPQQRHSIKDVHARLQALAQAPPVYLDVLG
Summary of the method: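 IC50 values come from AlphaScreen PY20/streptavidin bead signal versus compound concentration. Kinase reaction: 1 ng/well TrkA, 100 μM ATP, 30 nM biotin-(E4Y)10 substrate, Mn2+-containing Hepes buffer pH 7.5, 5% DMSO, 40 min, room temperature; TrkC assayed by the same approach.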

CCn1cc(Nc2ccc(Cc3c[nH]c4ncnc(OC)c34)c(F)n2)cn1 [Compound P-4011, (1-Ethyl-1H-pyrazol-4-yl)-[6-fluoro-5-(4-methoxy-7H-pyrrolo[2,3-d]pyrimidin-5-ylmethyl)-pyridin-2-yl]-amine]
IC50 (SKNSH cells): > 1 µM | IC50 (TrkA kinase): < 1 µM

CCOc1ncnc2[nH]cc(Cc3ccc(Nc4cnn(CC)c4)nc3F)c12 [Compound P-4012, [5-(4-Ethoxy-7H-pyrrolo[2,3-d]pyrimidin-5-ylmethyl)-6-fluoro-pyridin-2-yl]-(1-ethyl-1H-pyrazol-4-yl)-amine]
IC50 (SKNSH cells): > 1 µM | IC50 (TrkA kinase): < 0.1 µM

CCn1cc(Nc2ccc(Cc3c[nH]c4ncnc(C)c34)c(F)n2)cn1 [Compound P-4013, (1-Ethyl-1H-pyrazol-4-yl)-[6-fluoro-5-(4-methyl-7H-pyrrolo[2,3-d]pyrimidin-5-ylmethyl)-pyridin-2-yl]-amine]
IC50 (SKNSH cells): > 1 µM | IC50 (TrkA kinase): < 1 µM

CCn1cc(Nc2ccc(Cc3c[nH]c4ncnc(OCCOC)c34)c(F)n2)cn1 [Compound P-4014, (1-Ethyl-1H-pyrazol-4-yl)-{6-fluoro-5-[4-(2-methoxy-ethoxy)-7H-pyrrolo[2,3-d]pyrimidin-5-ylmethyl]-pyridin-2-yl}-amine]
IC50 (SKNSH cells): > 10 µM | IC50 (TrkA kinase): > 1 µM

COCCOc1ncnc2[nH]cc(Cc3ccc(Nc4ccc(C)nc4)nc3F)c12 [Compound P-4015, {6-Fluoro-5-[4-(2-methoxy-ethoxy)-7H-pyrrolo[2,3-d]pyrimidin-5-ylmethyl]-pyridin-2-yl}-(6-methyl-pyridin-3-yl)-amine]
IC50 (SKNSH cells): > 1 µM | IC50 (TrkA kinase): > 1 µM

CCc1ccc(Nc2ccc(Cc3c[nH]c4ncnc(OCCOC)c34)c(F)n2)cn1 [Compound P-4016, (6-Ethyl-pyridin-3-yl)-{6-fluoro-5-[4-(2-methoxy-ethoxy)-7H-pyrrolo[2,3-d]pyrimidin-5-ylmethyl]-pyridin-2-yl}-amine]
IC50 (SKNSH cells): > 1 µM | IC50 (TrkA kinase): < 0.01 µM

CCOc1ncnc2[nH]cc(Cc3ccc(Nc4ccc(C)nc4)nc3F)c12 [Compound P-4017, [5-(4-Ethoxy-7H-pyrrolo[2,3-d]pyrimidin-5-ylmethyl)-6-fluoro-pyridin-2-yl]-(6-methyl-pyridin-3-yl)-amine]
IC50 (SKNSH cells): < 1 µM | IC50 (TrkA kinase): < 0.1 µM

CCOc1ncnc2[nH]cc(Cc3ccc(Nc4ccc(OC)nc4)nc3F)c12 [Compound P-4018, [5-(4-Ethoxy-7H-pyrrolo[2,3-d]pyrimidin-5-ylmethyl)-6-fluoro-pyridin-2-yl]-(6-methoxy-pyridin-3-yl)-amine]
IC50 (SKNSH cells): < 1 µM | IC50 (TrkA kinase): < 0.1 µM

COCCOc1ncnc2[nH]cc(Cc3ccc(Nc4ccc(OC)nc4)nc3F)c12 [Compound P-4019, {6-Fluoro-5-[4-(2-methoxy-ethoxy)-7H-pyrrolo[2,3-d]pyrimidin-5-ylmethyl]-pyridin-2-yl}-(6-methoxy-pyridin-3-yl)-amine]
IC50 (SKNSH cells): > 1 µM | IC50 (TrkA kinase): < 0.1 µM

CCOc1ncnc2[nH]cc(Cc3ccc(Nc4ccc(Br)nc4)nc3F)c12 [Compound P-4020, (6-Bromo-pyridin-3-yl)-[5-(4-ethoxy-7H-pyrrolo[2,3-d]pyrimidin-5-ylmethyl)-6-fluoro-pyridin-2-yl]-amine]
IC50 (SKNSH cells): < 1 µM | IC50 (TrkA kinase): < 0.01 µM

CCOc1ncnc2[nH]cc(Cc3ccc(Nc4cccnc4)nc3F)c12 [Compound P-4021, [5-(4-Ethoxy-7H-pyrrolo[2,3-d]pyrimidin-5-ylmethyl)-6-fluoro-pyridin-2-yl]-pyridin-3-yl-amine]
IC50 (SKNSH cells): < 1 µM | IC50 (TrkA kinase): < 1 µM

COc1ccc(Nc2ccc(C(=O)c3c[nH]c4ncnc(C5CC5)c34)c(F)n2)cn1 [Compound P-4022, (4-cyclopropyl-7H-pyrrolo[2,3-d]pyrimidin-5-yl)-[2-fluoro-6-(6-methoxy-pyridin-3-ylamino)-pyridin-3-yl]-methanone]
IC50 (SKNSH cells): < 1 µM | IC50 (TrkA kinase): < 0.01 µM

COc1ccc(Nc2ccc(Cc3c[nH]c4ncnc(C5CC5)c34)c(F)n2)cn1 [Compound P-4023, [5-(4-cyclopropyl-7H-pyrrolo[2,3-d]pyrimidin-5-ylmethyl)-6-fluoro-pyridin-2-yl]-(6-methoxy-pyridin-3-yl)-amine]
IC50 (SKNSH cells): < 1 µM | IC50 (TrkA kinase): < 0.1 µM

CCOc1ccc(Nc2ccc(C(=O)c3c[nH]c4ncnc(OC)c34)c(F)n2)cn1 [Compound P-4024, [6-(6-Ethoxy-pyridin-3-ylamino)-2-fluoro-pyridin-3-yl]-(4-methoxy-7H-pyrrolo[2,3-d]pyrimidin-5-yl)-methanone]
IC50 (SKNSH cells): > 1 µM | IC50 (TrkA kinase): < 0.1 µM

CCOc1ncnc2[nH]cc(C(=O)c3ccc(Nc4ccc(OC)nc4)nc3F)c12 [Compound P-4025, (4-Ethoxy-7H-pyrrolo[2,3-d]pyrimidin-5-yl)-[2-fluoro-6-(6-methoxy-pyridin-3-ylamino)-pyridin-3-yl]-methanone]
IC50 (SKNSH cells): > 1 µM | IC50 (TrkA kinase): < 0.1 µM

Fc1nc(NC2CCC(F)(F)CC2)ccc1Cc1c[nH]c2ncnc(NCC(F)(F)F)c12 [Compound P-4128, 5-[[6-[(4,4-difluorocyclohexyl)amino]-2-fluoro-3-pyridyl]methyl]-N-(2,2,2-trifluoroethyl)-7H-pyrrolo[2,3-d]pyrimidin-4-amine]
IC50 (SKNSH cells): > 1 µM | IC50 (TrkA kinase): < 1 µM

Fc1nc(NC2CCC(F)(F)CC2)ccc1Cc1c[nH]c2ncnc(NC3CC3)c12 [Compound P-4129, N-cyclopropyl-5-[[6-[(4,4-difluorocyclohexyl)amino]-2-fluoro-3-pyridyl]methyl]-7H-pyrrolo[2,3-d]pyrimidin-4-amine]
IC50 (SKNSH cells): > 10 µM | IC50 (TrkA kinase): < 1 µM

Fc1nc(Nc2ccc(C3CC3)nc2)ccc1Cc1c[nH]c2ncnc(NCC(F)(F)F)c12 [Compound P-4130, 5-[[6-[(6-cyclopropyl-3-pyridyl)amino]-2-fluoro-3-pyridyl]methyl]-N-(2,2,2-trifluoroethyl)-7H-pyrrolo[2,3-d]pyrimidin-4-amine]
IC50 (SKNSH cells): < 10 µM | IC50 (TrkA kinase): < 0.01 µM
